The values below come from ChEMBL document CHEMBL1130579, “Design and synthesis of curacin a analogs with varied side chain structures” (Bioorg Med Chem Lett, 1997).

The IC50 is the midpoint of a concentration-inhibition curve. High values mean weaker potency in that assay, low ones greater potency in that assay.

Converted amounts (≈) assume the structure as drawn. Where only a bound is given, the exact number is not on record here.

One assay concerns NCI-H69. Put plainly: Compound was tested for its cytotoxicity against NCI-H69 human lung cancer cell line. The assay is classed as functional, cell-based.
The test system of the next assay is PC-9. Put plainly: Compound was tested for its cytotoxicity against PC-9 human lung cancer cell line. The assay is classed as functional, cell-based.
The subject of a further assay is WiDr. Put plainly: Compound was tested for its cytotoxicity against WiDr human colon cancer cell line. In kind it is functional, cell-based.
Assay [1] addresses Tubulin alpha chain (Sus scrofa) (UniProt P02550). Put plainly: Compound was tested for percentage of tubulin polymerized at 50 uM dose of compound. In kind it is functional.
Assay [2] has as its target T1, Tubulin alpha chain (Sus scrofa, UniProt P02550). Put plainly: Compound was tested for inhibitory activity against tubulin polymerization. In kind it is functional.
For assay [3], the target named is T1, Tubulin alpha chain. Put plainly: Compound was evaluated for its anti tubulin activity.

Sequence of Tubulin alpha chain (Sus scrofa) (P02550 whole entry, looked up): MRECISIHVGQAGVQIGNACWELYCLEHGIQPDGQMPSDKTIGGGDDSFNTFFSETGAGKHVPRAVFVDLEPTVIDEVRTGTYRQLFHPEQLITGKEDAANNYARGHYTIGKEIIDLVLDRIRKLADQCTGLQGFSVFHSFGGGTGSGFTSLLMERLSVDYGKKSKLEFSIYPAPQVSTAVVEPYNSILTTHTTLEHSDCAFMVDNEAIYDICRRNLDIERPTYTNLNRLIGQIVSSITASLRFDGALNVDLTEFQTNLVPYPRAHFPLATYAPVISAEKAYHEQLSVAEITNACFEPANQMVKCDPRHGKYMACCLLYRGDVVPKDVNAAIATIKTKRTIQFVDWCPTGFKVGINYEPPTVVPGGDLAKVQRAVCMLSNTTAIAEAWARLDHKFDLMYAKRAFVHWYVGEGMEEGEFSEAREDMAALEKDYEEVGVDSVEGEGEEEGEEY
T1 sequence (P02550 whole entry, looked up): as above

For the compound `C/C=C/CC/C=C\[C@@H]1CSC([C@@H]2C[C@@H]2C)=N1`, the IC50 with NCI-H69 is 31.7 µg/mL (≈ 135 µM); with PC-9, 37.7 µg/mL (≈ 160 µM); in the assay with WiDr, 33.7 µg/mL (≈ 143 µM); on Tubulin alpha chain [2] it was above 50 µM. This compound also gave an Activity in assay [1] of 84%.

For `C[C@H]1C[C@H]1C1=N[C@H](/C=C\CCc2ccccc2)CS1`, the half-maximal inhibitory concentration (IC50) in the assay on NCI-H69 was 34.1 µg/mL (≈ 125 µM); with PC-9 it was 30.1 µg/mL (≈ 111 µM); with WiDr it was 19.6 µg/mL (≈ 72.3 µM); against Tubulin alpha chain [2] it was above 50 µM. The same compound had an Activity in assay [1] of 71%.

As for `CCCCCCc1ccc(CC/C=C\[C@@H]2CSC([C@@H]3C[C@@H]3C)=N2)cc1`, the half-inhibitory concentration (IC50) in the assay with NCI-H69 is 76.5 µg/mL (≈ 215 µM); in the assay on PC-9 it was 50.2 µg/mL (≈ 141 µM); in the assay with WiDr, 42.5 µg/mL (≈ 119 µM); at Tubulin alpha chain [2], above 50 µM. Moreover, the Activity in assay [1] was determined as 95%.

Regarding `CC(C)=C/C=C/CC/C=C\[C@@H]1CSC([C@@H]2C[C@@H]2C)=N1`, in assay [1], the Activity stood at 100%. In addition, on Tubulin alpha chain [2], the IC50 is above 50 µM.

With `CCCCCCCCCCCC/C=C\[C@@H]1CSC([C@@H]2C[C@@H]2C)=N1`, the IC50 in the assay on NCI-H69 was 54.1 µg/mL (≈ 161 µM); in the assay on PC-9, 77.2 µg/mL (≈ 230 µM); in the assay on WiDr, 84.9 µg/mL (≈ 253 µM); against Tubulin alpha chain [2], above 50 µM. Also, the Activity in assay [1] came to 100%.

In the case of `CCCCCCCc1cccc(CC/C=C\[C@@H]2CSC([C@@H]3C[C@@H]3C)=N2)c1`, the IC50 is 64.7 µg/mL (≈ 175 µM) in the assay on NCI-H69, 35.5 µg/mL (≈ 96.1 µM) in the assay on PC-9, 69.3 µg/mL (≈ 187 µM) with WiDr and above 50 µM on Tubulin alpha chain [2]. This compound also displayed an Activity in assay [1] of 85%.

On to `C[C@H]1C[C@H]1C1=N[C@H](/C=C\CCCc2ccccc2)CS1`, for which the half-maximal inhibitory concentration (IC50) with NCI-H69 is 45.2 µg/mL (≈ 158 µM); in the assay on PC-9, 24 µg/mL (≈ 84 µM); in the assay on WiDr, 19.3 µg/mL (≈ 67.6 µM); against Tubulin alpha chain [2], above 50 µM. For the same compound, the Activity in assay [1] was found to be 93%.

In the case of `C=CC[C@@H](CC/C(C)=C/C=C/CC/C=C\[C@@H]1CSC(C2CC2C)=N1)OC` (single isomer, unassigned) [CURACIN A], the 50% inhibitory concentration (IC50) at Tubulin alpha chain [3] stood at 2500 nM.

Consider `C=CC[C@@H](CC/C(C)=C/C=C/CC/C=C\[C@@H]1CSC([C@@H]2C[C@@H]2C)=N1)OC` [CURACIN A], for which the half-maximal inhibitory concentration (IC50) in the assay with NCI-H69 is 0.89 µg/mL (≈ 2.38 µM); with PC-9 it was 19.6 µg/mL (≈ 52.5 µM); in the assay on WiDr, below 0.2 µg/mL; on Tubulin alpha chain [2], 2.5 µM.
